Target: Enzyme I (EI, PtsI) (Escherichia coli, UniProt P08839)
Assay: […] pyruvate/PEP isotope exchange assay with LC-MS/MS on purified enzyme
Format: biochemical

O=C(O)CCC(=O)C(=O)O [αKG, α-ketoglutarate]
Ki: 1300 ± 100 µM

Source: article PMC3218208 (Nature chemical biology, 2011)
